The record followed here is ChEMBL document CHEMBL4715829, “Heterodimeric Rifampicin-Tobramycin conjugates break intrinsic resistance of Pseudomonas aeruginosa to doxycycline and chloramphenicol in vitro and in a Galleria mellonella in vivo model” (Eur J Med Chem, 2019).

A word on the MIC: it is the least concentration at which growth counts as inhibited.

Data set [1] deals with Pseudomonas aeruginosa. Nature of the data set: Antibacterial activity against Pseudomonas aeruginosa 259-96918 assessed as reduction in bacterial growth by measuring chloramphenicol MIC at 2 ug/ml incubated for 18 hrs in presence of chloramphenicol by broth microdilution assay (reference value: 1024 ug/ml). The class given is functional. The conditions noted are these: dose 2 µg/ml. In general terms: Dilution methods test growth across graded concentrations, often in twofold steps.

Data set [2] relates to Pseudomonas aeruginosa. Briefly: Antibacterial activity against Pseudomonas aeruginosa 262-101856 assessed as reduction in bacterial growth by measuring chloramphenicol MIC at 16 ug/ml incubated for 18 hrs in presence of chloramphenicol by broth microdilution assay (reference value: 2048 ug/ml). The class given is functional. The note with it: dose 16 µg/ml.
Data set [3] relates to Pseudomonas aeruginosa. Nature of the data set: Antibacterial activity against Pseudomonas aeruginosa 260-97103 assessed as reduction in bacterial growth by measuring chloramphenicol MIC at 2 ug/ml incubated for 18 hrs in presence of chloramphenicol by broth microdilution assay (reference value: 128 ug/ml). The class given is functional. The conditions noted are these: dose 2 µg/ml.

In data set [4] the test system is Pseudomonas aeruginosa. Briefly: Antibacterial activity against Pseudomonas aeruginosa 264-101354 assessed as fractional inhibitory concentration index incubated for 18 hrs in presence of minocycline by broth microdilution assay. The class given is functional.
Data set [5] has as its system Pseudomonas aeruginosa. Briefly: Antibacterial activity against Pseudomonas aeruginosa 259-96918 assessed as fractional inhibitory concentration incubated for 18 hrs in presence of minocycline by broth microdilution assay. The class given is functional.
For data set [6], the system named is Pseudomonas aeruginosa. Briefly: Potentiation of doxycycline-induced antibacterial activity against Pseudomonas aeruginosa 91433 assessed as fold change in doxycycline MIC at 9.8 uM incubated for 18 hrs in presence of doxycycline by broth microdilution assay relative to control. It counts as functional.
Data set [7] concerns Pseudomonas aeruginosa. Nature of the data set: Antibacterial activity against Pseudomonas aeruginosa 101243 assessed as fractional inhibitory concentration incubated for 18 hrs in presence of rifampicin by broth microdilution assay. The class given is functional.
Data set [8] relates to Pseudomonas aeruginosa. Nature of the data set: Antibacterial activity against Pseudomonas aeruginosa 101243 assessed as potentiation of doxycycline-induced antibacterial activity by measuring doxycycline MIC at 9.8 uM incubated for 18 hrs in presence of doxycycline by broth microdilution assay (reference value: 4 ug/ml). The class given is functional.
The test system of data set [9] is Pseudomonas aeruginosa. Nature of the data set: Antibacterial activity against Pseudomonas aeruginosa 259-96918 assessed as fractional inhibitory concentration incubated for 18 hrs in presence of rifampicin by broth microdilution assay. The class given is functional.
For data set [10], the system named is Pseudomonas aeruginosa. Briefly: Antibacterial activity against Pseudomonas aeruginosa 260-97103 assessed as potentiation of chloramphenicol-induced antibacterial activity by measuring chloramphenicol MIC at 9.8 uM incubated for 18 hrs in presence of chloramphenicol by broth microdilution assay (reference value: 128 ug/ml). It counts as functional.
In data set [11] the test system is Pseudomonas aeruginosa. Nature of the data set: Potentiation of doxycycline-induced antibacterial activity against Pseudomonas aeruginosa 260-97103 assessed as fold change in doxycycline MIC at 9.8 uM incubated for 18 hrs in presence of doxycycline by broth microdilution assay relative to control. It counts as functional.
Data set [12] can be described thus: Toxicity in Galleria mellonella larvae assessed as larval survival at 200 mg/kg measured after 96 hrs. The class given is organism-based. The conditions noted are these: in vivo.
For data set [13], the system named is Pseudomonas aeruginosa. Briefly: Antibacterial activity against Pseudomonas aeruginosa 114228 assessed as potentiation of chloramphenicol-induced antibacterial activity by measuring chloramphenicol MIC at 9.8 uM incubated for 18 hrs in presence of chloramphenicol by broth microdilution assay (reference value: 64 ug/ml). The class given is functional.
Data set [14] concerns HepG2. Nature of the data set: Cytotoxicity against human HepG2 cells assessed as cell viability at 50 uM incubated for 48 hrs in presence of chloramphenicol by prestoblue assay. The class given is cell-based. The conditions noted are these: hepg2, 48 h.
In data set [15] the test system is Escherichia coli. Nature of the data set: Potentiation of chloramphenicol-induced antibacterial activity against Escherichia coli ATCC 25922 assessed as fold change in chloramphenicol MIC at 9.8 uM incubated for 18 hrs in presence of chloramphenicol by broth microdilution assay relative to control. The class given is functional.
For data set [16], the system named is Pseudomonas aeruginosa. Nature of the data set: Antibacterial activity against Pseudomonas aeruginosa 101885 assessed as potentiation of doxycycline-induced antibacterial activity by measuring doxycycline MIC at 9.8 uM incubated for 18 hrs in presence of doxycycline by broth microdilution assay (reference value: 64 ug/ml). It counts as functional.
In data set [17] the test system is Pseudomonas aeruginosa. Nature of the data set: Antibacterial activity against Pseudomonas aeruginosa 264-101354 assessed as fractional inhibitory concentration incubated for 18 hrs in presence of tigecycline by broth microdilution assay. It counts as functional.
Data set [18] has as its system Pseudomonas aeruginosa. Briefly: Potentiation of doxycycline-induced antibacterial activity against Pseudomonas aeruginosa 259-96918 assessed as fold change in doxycycline MIC at 9.8 uM incubated for 18 hrs in presence of doxycycline by broth microdilution assay relative to control. It counts as functional.
The test system of data set [19] is Pseudomonas aeruginosa. Briefly: Antibacterial activity against Pseudomonas aeruginosa 101885 assessed as fractional inhibitory concentration index incubated for 18 hrs in presence of tigecycline by broth microdilution assay. The class given is functional.
In data set [20] the test system is Klebsiella pneumoniae. Briefly: Potentiation of doxycycline-induced antibacterial activity against Klebsiella pneumoniae ATCC 16381 assessed as fold change in doxycycline MIC at 9.8 uM incubated for 18 hrs in presence of doxycycline by broth microdilution assay relative to control. The class given is functional.
The test system of data set [21] is Pseudomonas aeruginosa. Nature of the data set: Potentiation of chloramphenicol-induced antibacterial activity against Pseudomonas aeruginosa 100036 assessed as fold change in chloramphenicol MIC at 7.6 uM incubated for 18 hrs in presence of chloramphenicol by broth microdilution assay relative to control. The class given is functional.
Data set [22] relates to Pseudomonas aeruginosa. Nature of the data set: Antibacterial activity against Pseudomonas aeruginosa 114228 assessed as potentiation of doxycycline-induced antibacterial activity by measuring doxycycline MIC at 7.6 uM incubated for 18 hrs in presence of doxycycline by broth microdilution assay (reference value: 32 ug/ml). It counts as functional.
The subject of data set [23] is Pseudomonas aeruginosa. Nature of the data set: Potentiation of doxycycline-induced antibacterial activity against Pseudomonas aeruginosa 101885 assessed as fold change in doxycycline MIC at 7.6 uM incubated for 18 hrs in presence of doxycycline by broth microdilution assay relative to control. It counts as functional.
The subject of data set [24] is Pseudomonas aeruginosa. Briefly: Antibacterial activity against Pseudomonas aeruginosa 259-96918 assessed as potentiation of doxycycline-induced antibacterial activity by measuring doxycycline MIC at 7.6 uM incubated for 18 hrs in presence of doxycycline by broth microdilution assay (reference value: 32 ug/ml). It counts as functional.
The subject of data set [25] is Klebsiella pneumoniae. Nature of the data set: Potentiation of doxycycline-induced antibacterial activity against Klebsiella pneumoniae ATCC 16381 assessed as fold change in doxycycline MIC at 7.6 uM incubated for 18 hrs in presence of doxycycline by broth microdilution assay relative to control. It counts as functional.
In data set [26] the test system is Pseudomonas aeruginosa. Briefly: Antibacterial activity against Pseudomonas aeruginosa 264-101354 assessed as reduction in bacterial growth by measuring doxycycline MIC at 8 ug/ml incubated for 18 hrs in presence of doxycycline by broth microdilution assay (reference value: 64 ug/ml). The class given is functional. The conditions noted are these: dose 8 µg/ml.

The test system of data set [27] is Pseudomonas aeruginosa. Briefly: Antibacterial activity against Pseudomonas aeruginosa 259-96918 assessed as reduction in bacterial growth by measuring doxycycline MIC at 8 ug/ml incubated for 18 hrs in presence of doxycycline by broth microdilution assay (reference value: 32 ug/ml). It counts as functional. The conditions noted are these: dose 8 µg/ml.
The test system of data set [28] is Pseudomonas aeruginosa. Briefly: Antibacterial activity against wild type Pseudomonas aeruginosa PAO1 assessed as reduction in bacterial growth by measuring doxycycline MIC at 0.25 ug/ml incubated for 18 hrs in presence of doxycycline by broth microdilution assay (reference value: 16 ug/ml). It counts as functional. The note with it: dose 0.25 µg/ml.
Data set [29] concerns Pseudomonas aeruginosa. Briefly: Antibacterial activity against Pseudomonas aeruginosa 91433 assessed as fractional inhibitory concentration in presence of chloramphenicol incubated for 18 hrs by broth microdilution assay. The class given is functional.
The test system of data set [30] is Pseudomonas aeruginosa. Briefly: Antibacterial activity against Pseudomonas aeruginosa 260-97103 assessed as fractional inhibitory concentration incubated for 18 hrs in presence of chloramphenicol by broth microdilution assay. The class given is functional.

Bounds are passed on as bounds.

As to `CO[C@H]1/C=C/O[C@@]2(C)Oc3c(C)c(O)c4c(O)c(c(/C=N/N5CCN(C)CC5)c(O)c4c3C2=O)NC(=O)/C(C)=C\C=C\[C@H](C)[C@H](O)[C@@H](C)[C@@H](O)[C@@H](C)[C@H](OC(C)=O)[C@@H]1C` [RIFAMPIN], the values for the MIC in data set [1], in data set [2] and in [3] were 1020 µg/mL, 2050 µg/mL and 128 µg/mL, respectively.

For `CO[C@H]1/C=C/O[C@@]2(C)Oc3c(C)c(O)c4c(O)c(c(/C=N/N5CCN(Cc6cn(CCCCCCO[C@@H]7[C@@H](O[C@H]8O[C@H](CO)[C@@H](O)[C@H](N)[C@H]8O)[C@H](N)C[C@H](N)[C@H]7O[C@H]7O[C@H](CN)[C@@H](O)C[C@H]7N)nn6)CC5)c(O)c4c3C2=O)NC(=O)/C(C)=C\C=C\[C@H](C)[C@H](O)[C@@H](C)[C@@H](O)[C@@H](C)[C@H](OC(C)=O)[C@@H]1C.Cl.Cl.Cl.Cl.Cl`, the “fractional inhibitory concentration index (FICI)” value in [4] was 0.08; in [19] it was 0.19. The FIC was below 0.125 in data set [5], 0.063 in data set [7], below 0.125 in [9] and 0.063 in [17]. Further, the “fold change (FC)” value in data set [6] is 4; in data set [11] it was 4; in data set [15], 0; in [18], 4; in data set [20], 0. Further, the MIC in data set [8] worked out at 0.25 µg/mL; in data set [10], 2 µg/mL; in data set [13], 16 µg/mL; in data set [16], 1 µg/mL. Further, the survival at 96 h in data set [12] is 97%. The Activity result in data set [14] is listed as “Non-Toxic”.

In the case of `CO[C@H]1/C=C/O[C@@]2(C)Oc3c(C)c(O)c4c(O)c(c(/C=N/N5CCN(Cc6cn(CCCCCCCCCCCCO[C@@H]7[C@@H](O[C@H]8O[C@H](CO)[C@@H](O)[C@H](N)[C@H]8O)[C@H](N)C[C@H](N)[C@H]7O[C@H]7O[C@H](CN)[C@@H](O)C[C@H]7N)nn6)CC5)c(O)c4c3C2=O)NC(=O)/C(C)=C\C=C\[C@H](C)[C@H](O)[C@@H](C)[C@@H](O)[C@@H](C)[C@H](OC(C)=O)[C@@H]1C.O=C(O)C(F)(F)F.O=C(O)C(F)(F)F.O=C(O)C(F)(F)F.O=C(O)C(F)(F)F.O=C(O)C(F)(F)F`, the “fold change (FC)” value stood at 4 in data set [21], 4 in [23] and 0 in data set [25]. For the same compound, the MIC came out at 2 µg/mL in [22] and 0.25 µg/mL in [24].

`NC[C@H]1O[C@H](O[C@H]2[C@H](O)[C@@H](O[C@H]3O[C@H](CO)[C@@H](O)[C@H](N)[C@H]3O)[C@H](N)C[C@@H]2N)[C@H](N)C[C@@H]1O` [TOBRAMYCIN]: the MIC is 64 µg/mL in data set [26], 32 µg/mL in data set [27] and 8 µg/mL in data set [28]. For the same compound, the FIC in data set [29] and in data set [30] was 0.5 each time.
